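In this assay, cells in 96-well plates receive the compound at five concentrations for 48 hours. Endpoints are linearly interpolated between the surrounding concentrations. GI50: concentration for 50% inhibition of growth. TGI is the concentration that stops growth completely.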
Tests used:
Assay in all cases: NCI anticancer screen, dose series, 48 h
M14 melanoma = test system: M14 melanoma
SF-539 CNS = test system: SF-539 CNS
SN12C renal = test system: SN12C renal
TK-10 renal = test system: TK-10 renal
HCC-2998 colon = test system: HCC-2998 colon
786-0 renal = test system: 786-0 renal
HT29 colon = test system: HT29 colon
SK-MEL-5 melanoma = test system: SK-MEL-5 melanoma
COLO 205 colon = test system: COLO 205 colon
OVCAR-8 ovarian = test system: OVCAR-8 ovarian
SR leukemia = test system: SR leukemia
K-562 leukemia = test system: K-562 leukemia
CCRF-CEM leukemia = test system: CCRF-CEM leukemia
T-47D breast = test system: T-47D breast
SK-MEL-2 melanoma = test system: SK-MEL-2 melanoma
LOX IMVI melanoma = test system: LOX IMVI melanoma
EKVX NSCLC = test system: EKVX NSCLC
MALME-3M melanoma = test system: MALME-3M melanoma
DU-145 prostate = test system: DU-145 prostate
RXF 393 renal = test system: RXF 393 renal
HCT-15 colon = test system: HCT-15 colon
SNB-19 CNS = test system: SNB-19 CNS
A498 renal = test system: A498 renal
UO-31 renal = test system: UO-31 renal
UACC-62 melanoma = test system: UACC-62 melanoma
MDA-MB-435 = test system: MDA-MB-435
IGROV1 ovarian = test system: IGROV1 ovarian
A549 NSCLC = test system: A549 NSCLC
CAKI-1 renal = test system: CAKI-1 renal
OVCAR-4 ovarian = test system: OVCAR-4 ovarian
SK-MEL-28 melanoma = test system: SK-MEL-28 melanoma
NCI-H460 lung = test system: NCI-H460 lung
KM12 colon = test system: KM12 colon
NCI-H522 lung = test system: NCI-H522 lung
OVCAR-5 ovarian = test system: OVCAR-5 ovarian
SK-OV-3 ovarian = test system: SK-OV-3 ovarian
NCI-H23 lung = test system: NCI-H23 lung
HOP-62 NSCLC = test system: HOP-62 NSCLC
ACHN renal = test system: ACHN renal
MCF7 breast = test system: MCF7 breast
RPMI-8226 leukemia = test system: RPMI-8226 leukemia
MDA-MB-231 breast = test system: MDA-MB-231 breast
SW-620 colon = test system: SW-620 colon
BT-549 breast = test system: BT-549 breast
SF-295 CNS = test system: SF-295 CNS
U251 CNS = test system: U251 CNS
NCI/ADR-RES ovarian = test system: NCI/ADR-RES ovarian
MOLT-4 leukemia = test system: MOLT-4 leukemia
SNB-75 CNS = test system: SNB-75 CNS
UACC-257 melanoma = test system: UACC-257 melanoma
HS 578T breast = test system: HS 578T breast
HCT-116 colon = test system: HCT-116 colon
HL-60(TB) leukemia = test system: HL-60(TB) leukemia
OVCAR-3 ovarian = test system: OVCAR-3 ovarian
HOP-92 NSCLC = test system: HOP-92 NSCLC
NCI-H226 lung = test system: NCI-H226 lung
SF-268 CNS = test system: SF-268 CNS
PC-3 prostate = test system: PC-3 prostate

## CCCn1cnc2c(c1=N)C(c1ccc(Cl)cc1)c1sc3c(CC)cccc3c1O2 (stereo not given)
M14 melanoma
  GI50: 588 nM
  TGI: 9750 nM
SF-539 CNS
  GI50: 410 nM
  TGI: 1900 nM
SN12C renal
  GI50: 1580 nM
  TGI: 15000 nM
TK-10 renal
  GI50: 7620 nM
  TGI: 23500 nM
HCC-2998 colon
  GI50: 1750 nM
  TGI: 7550 nM
786-0 renal
  GI50: 555 nM
  TGI: 12900 nM
HT29 colon
  GI50: 725 nM
  TGI: 6130 nM
SK-MEL-5 melanoma
  GI50: 683 nM
  TGI: 11500 nM
COLO 205 colon
  GI50: 971 nM
  TGI: 3930 nM
OVCAR-8 ovarian
  GI50: 1380 nM
  TGI: 13400 nM
SR leukemia
  GI50: 342 nM
  TGI: 5010 nM
K-562 leukemia
  GI50: 328 nM
  TGI: 6150 nM
CCRF-CEM leukemia
  GI50: 370 nM
T-47D breast
  GI50: 581 nM
  TGI: 14900 nM
SK-MEL-2 melanoma
  GI50: 925 nM
  TGI: 16000 nM
LOX IMVI melanoma
  GI50: 706 nM
  TGI: 10900 nM
EKVX NSCLC
  GI50: 1120 nM
  TGI: 16600 nM
MALME-3M melanoma
  GI50: 722 nM
  TGI: 20300 nM
DU-145 prostate
  GI50: 615 nM
  TGI: 11400 nM
RXF 393 renal
  GI50: 273 nM
  TGI: 1310 nM
HCT-15 colon
  GI50: 497 nM
  TGI: 10400 nM
SNB-19 CNS
  GI50: 592 nM
  TGI: 15400 nM
A498 renal
  GI50: 359 nM
  TGI: 1830 nM
UO-31 renal
  GI50: 712 nM
  TGI: 18300 nM
UACC-62 melanoma
  GI50: 515 nM
  TGI: 14500 nM
MDA-MB-435
  GI50: 250 nM
  TGI: 1000 nM
IGROV1 ovarian
  GI50: 607 nM
  TGI: 11800 nM
A549 NSCLC
  GI50: 824 nM
  TGI: 14200 nM
CAKI-1 renal
  GI50: 361 nM
  TGI: 15600 nM
OVCAR-4 ovarian
  GI50: 1200 nM
  TGI: 18200 nM
SK-MEL-28 melanoma
  GI50: 2990 nM
  TGI: 22400 nM
NCI-H460 lung
  GI50: 392 nM
  TGI: 10400 nM
KM12 colon
  GI50: 448 nM
  TGI: 13400 nM
NCI-H522 lung
  GI50: 407 nM
  TGI: 5530 nM
OVCAR-5 ovarian
  GI50: 2130 nM
  TGI: 13300 nM
SK-OV-3 ovarian
  GI50: 670 nM
  TGI: 20800 nM
NCI-H23 lung
  GI50: 974 nM
  TGI: 11300 nM
HOP-62 NSCLC
  GI50: 563 nM
  TGI: 8930 nM
ACHN renal
  GI50: 637 nM
  TGI: 17000 nM
MCF7 breast
  GI50: 354 nM
  TGI: 11700 nM
RPMI-8226 leukemia
  GI50: 471 nM
  TGI: 7390 nM
MDA-MB-231 breast
  GI50: 1950 nM
  TGI: 13700 nM
SW-620 colon
  GI50: 422 nM
  TGI: 12800 nM
BT-549 breast
  GI50: 1960 nM
  TGI: 16700 nM
SF-295 CNS
  GI50: 385 nM
  TGI: 3750 nM
U251 CNS
  GI50: 505 nM
  TGI: 10900 nM
NCI/ADR-RES ovarian
  GI50: 419 nM
  TGI: 2750 nM
MOLT-4 leukemia
  GI50: 644 nM
  TGI: 9250 nM
SNB-75 CNS
  GI50: 202 nM
  TGI: 878 nM
UACC-257 melanoma
  GI50: 12200 nM
  TGI: 33700 nM
HS 578T breast
  GI50: 434 nM
  TGI: 5640 nM
HCT-116 colon
  GI50: 446 nM
  TGI: 10300 nM
HL-60(TB) leukemia
  GI50: 307 nM
  TGI: 1660 nM
OVCAR-3 ovarian
  GI50: 347 nM
  TGI: 1780 nM
HOP-92 NSCLC
  GI50: 1250 nM
  TGI: 12800 nM
NCI-H226 lung
  GI50: 936 nM
  TGI: 10200 nM
SF-268 CNS
  GI50: 820 nM
  TGI: 15200 nM
PC-3 prostate
  GI50: 564 nM
  TGI: 14700 nM

— PubChem BioAssay (NCI)
